Measurements reported in US20250360130A1, “METHODS OF TREATING INDOLENT SYSTEMIC MASTOCYTOSIS” (Telios Pharma Inc., priority 2024, published 2025).

Experiments:
basophils [1] = assay: Basophil Activation Test (BAT), CD63, whole blood; type: cell-based, human; conditions: 24 hours versus 2 hours drug exposure
Procedure: (§1) The BAT was conducted as set forth in Santos (2021) Allergy, 76:2420-2432. Blood from six healthy donors was drawn and Compound 128 was added at various concentrations (10 μM, 3.16 μM, 1 μM, 0.3 μM, 0.1 μM, 0.03 μM, or 0 μM). Blood samples were gently rocked at room temperature for 2 hours, 24 hours, or 48 hours. The BAT assay using the Flow Cast Basophil Activation Kit (Buhlmann Diagnostics; Catalog #B-CCR-STCON) was then conducted following manufacturer instructions by (1) stimulating the blood with anti-FcεR stimulation control in stimulation buffer with IL-3 and staining cells for CCR3 and CD63 for 15 minutes at 37° C., (2) lysing red blood cells and fixing cells with Lysing Reagent at room temperature for 10 minutes, (3) washing cells with Wash Buffer, and (4) acquiring data on a flow cytometer. Activated basophils were defined as CCR3+, low side scatter and CD63+. Percent of activated basophils was calculated as number of activated basophils over the total number of basophils. A four-parameter logistic regression was applied to determine the EC50 and EC90.

serum tryptase = assay: Serum tryptase in ISM patients; type: in vivo, human; conditions: 100 mg or 150 mg BID
Procedure: Also, blood samples were collected at the following timepoints: Cycle 1, Day 1: pre-dose (within 30 minutes prior to the morning dose), 0.5, 1.0, 2.0, 3.0, 4.0, and 6.0 hours (+15 minutes) post-morning dose. Cycle 1, Day 8: pre-dose (within 30 minutes prior to the morning dose) and 2 hours (+15 minutes) post-morning dose. Serum tryptase tests were conducted according to Example 14.
The measurement of serum tryptase can be followed to the procedure described in the literature (McMurray et al., Standardized indolent systemic mastocytosis evaluations across a health care system: implications for screening accuracy, Blood (2024) 144 (4): 408-419). Briefly, the procedure begins with proper patient preparation, avoiding recent physical activity or triggers that could cause mast cell activation. Venous blood samples, preferably drawn when the patient is not experiencing acute symptoms, are collected in serum separator tubes (SSTs) or plain red-top tubes, with approximately 5 mL of blood needed for analysis. After collection, the blood is allowed to clot at room temperature for 30-60 minutes before centrifugation for 10-15 minutes. The serum is then carefully separated from the cells and stored at 2-8° C. for short-term analysis or frozen at −20° C. or lower for long-term storage. […]

basophils [2] = assay: Inhibition of basophil activation (BAT, CD63) in ISM patients; type: in vivo, human
Procedure: as §1, with “EC90. […]” for “EC90.”
The BAT assay measuring CD63 used the Flow Cast Basophil Activation Kit method and percent activated basophils were calculated as described in Example 1. Percent inhibition of CD63 activation was calculated as (100−(Sample condition−Unstimulated DMSO control)/(Stimulated DMSO control−Unstimulated DMSO control)×100).

MRGPRX2 = assay: MRGPRX2-mediated cytokine production in ISM-like mast cells; type: cell-based, human
Procedure: Human mast cells were differentiated from bone marrow CD34+ cells from four healthy donors and were cultured in the presence of SCF (100 ng/mL) to mimic mast cells in ISM and treated with Compound 128 for two hours prior to stimulation. Mas-related G protein-coupled receptor (MRGPRX2) agonists, Compound 48/80 (C48/80; a product of N-methyl-p-methoxyphenethylamine with formaldehyde) or Substance P (SP) were used to activate the MRGPRX2 pathway. For pBTK test, cells were stimulated with C48/80 (10 μg/mL) for ten minutes at 37° C. and cells were stained. The median fluorescence intensity of phosphorylated BTK was measured. The fold change over unstimulated control for pBTK was calculated. For cytokine test, cells were stimulated with C48/80 (10 μg/mL) or SP (30 μM) for four hours at 37° C. Supernatant was collected and cytokine levels were measured using the BD Cytometric Bead Array (CBA) human soluble protein master buffer kit (Becton Dickinson) and BD CBA human soluble protein flex sets for IL-8, MCP-1, GM-CSF and IL-13 (Becton Dickinson). Cytokine levels were measured and normalized to percent of control, with 0% representing the level of the unstimulated control.

mast cells = assay: Return of degranulation after Compound 128 exposure and washout (FIG. 18); type: cell-based, human; conditions: after Compound 128 exposure, flow cytometry
Excerpt: FIGS. 18A-D show return of degranulation after Compound 128 exposure.

[3] = system: healthy mast cells and ISM mast cells; assay: Potency across healthy mast cells and ISM mast cells (FIG. 16); type: cell-based, human; conditions: presence of SCF, NP-IgE sensitization, NP-BSA stimulation
Procedure: Healthy BM-MC donor 0166 and ISM WB-MC 1061-004 17 Jan. 2024 and 17 Oct. 2024. Experiments performed in the presence of SCF. Sensitization and Stimulation: NP-IgE (100 ng/ml) 18 hrs, NP-BSA (0.5 ng/ml) for 15 min at 37° C. (CD63, CD203, pBTK and histamine) or 4 min at RT (Calcium Flux).

[4] = system: mast cells derived from ISM patients; assay: Degranulation of mast cells grown from CD34+ blood cells from ISM patients (FIG. 22); type: cell-based, human; conditions: antigen stimulation in absence of SCF

Compound: C=CC(=O)N1CCC(F)(CNc2ncnc(N)c2-c2ccc(Oc3ccccc3)cc2)CC1 [Compound 128, 1-(4-(((6-amino-5-(4-phenoxyphenyl)pyrimidin-4-yl)amino)methyl)-4-fluoropiperidin-1-yl)prop-2-en-1-one]
- potency increase after 24 hours drug exposure (basophils [1]): approximately 4 fold
- reduction in serum tryptase levels (serum tryptase): effective in reducing serum tryptase levels
- inhibition of basophil activation (basophils [2]; 100 mg or 150 mg BID): effective in inhibiting basophil activation
- percent inhibition of CD63 activation of basophils, dose dependence (basophils [2]; 50, 75, 100 or 150 mg BID versus placebo): greater inhibition of basophil activation is achieved in ISM patients with greater dosing
- MRGPRX2-mediated cytokine production (MRGPRX2; 0.1 μM): partially inhibited
- MRGPRX2-mediated cytokine production (MRGPRX2; 0.5 and 1 μM): inhibition of cytokine production was increased
- C48/80-mediated cytokine production (MRGPRX2; Compound 48/80 agonist): partial inhibition
- SP-mediated cytokine production (MRGPRX2; Substance P (SP) agonist): fully inhibited
- time to restoration of degranulation after inhibition (mast cells): ≤ 24 h
- potency in healthy versus ISM mast cells (CD63, CD203, pBTK, histamine, calcium flux) [3]: equipotent
- degranulation of ISM patient-derived mast cells [4]: inhibited the degranulation
